In publication PMC11406516, “The Tuberculosis Drug Candidate SQ109 and Its Analogs Have Multistage Activity against Plasmodium falciparum” (ACS Infectious Diseases, 2024):
≈ marks a conversion by molar mass, not a printed value. Like-named read-outs stand apart in the source and are kept apart here. Marks after values point to notes of the source that are not given here.

Columns and labels:
[1] = system: PfNF54 LGc (stage IV/V gametocytes); assay: PrestoBlue late-stage gametocyte viability assay; assay type: cell-based, Plasmodium falciparum; settings: for IC50: Plasmodium falciparum, stage IV/V gametocytes, 48 h drug pressure, read-out: PfNF54 LGc IC50
Experimental: Gametocytogenesis was induced on highly synchronized (>95%) asexual ring-stage parasites from PfNF54 at 0.5% parasitemia and 6% hematocrit and thereafter maintained in glucose-deprived media as previously described.[29],[15] After 3 days, the hematocrit was decreased to 4%. Parasites were maintained in complete culture media supplemented with 50 mM N-acetyl-glucosamine 5–10 days post induction to inhibit proliferation of residual asexual blood stages. Gametocyte progression and morphology was also monitored microscopically using Giemsa-stained thin smears.
activity against the sexual stages of P. falciparum was evaluated using the PrestoBlue fluorescence assay as previously described.[4] Activity was measured on PfNF54 stage IV/V gametocytes (2% gametocytemia, 5% hematocrit) previously seeded with compounds (in non-lethal DMSO) for 48 h drug pressure, after which PrestoBlue reagent was added and incubated for 2 h. Fluorescence was detected in the supernatant at 612 nm. Dihydroartemisinin (DHA) was used as a positive drug control.

male gametes (PfNF54) = assay: Male gamete exflagellation inhibition assay (EIA); assay type: cell-based; settings: Plasmodium falciparum; 2 μM, 48 h; read-out: male gamete inhibition %
Experimental: The EIA was performed using video microscopy by capturing the movement of exflagellation centers over time as previously described.[4],[30] Mature PfNF54 stage V gametocytes (>95%;) were treated with 2 μM of drug for 48 h before the activation of exflagellation, without removing drug pressure. Movement was semi-automatically quantified from 15 videos of 8–10 s each between 15 and 22.5 min after incubation. Each video was analyzed using ICY-bio image analysis software.

female gametes = assay: Female gamete inhibition assay; assay type: cell-based, Plasmodium falciparum; parameters: concentration or dose not given beside the values
Experimental: Similarly, female gametes were activated as described previously.[31] Monoclonal anti-Pfs antibody conjugated to FITC was used to detect female gametes. Image acquisition was performed using a Zeiss Axio Lab.A1 epifluorescence microscope with a 100/1.4 numerical aperture (NA) oil immersion. Thirty images were captured per sample and analyzed manually.

oocyst formation = assay: Standard membrane feeding assay (SMFA), oocyst formation in Anopheles coluzzii; assay type: in vivo; settings: Plasmodium falciparum, 48 h drug treatment at 2 μM, single biological repeat
Experimental: Transmission-blocking activity was confirmed in the standard membrane feeding assay (SMFA), by determining transmission-reducing activity (TRA; reduction in oocyst counts) and transmission-blocking activity (TBA, reduction in oocyst prevalence), 8–10 days after feeding female mosquitoes on gametocyte-infected blood, treated with selected compounds (at 2 μM).
SMFA was performed using glass feeders as is outlined.[4],[16] Once again, mature stage V gametocytes (>95%) were treated with 2 μM of each compound for 48 h prior to feeding. Anopheles coluzzii females were allowed to feed on gametocyte cultures (1.5–2.5% gametocytemia, 50% hematocrit in A+ male serum with fresh erythrocytes) in the dark for 40 min. All unfed or partially fed mosquitoes were removed, and remaining females housed for 8–10 days. Mosquitoes were dissected to remove midguts, and oocysts counted under bright field illumination at ×20–×40 magnification. The percentage of block in transmission (transmission-blocking activity; TBA) and the percentage of reduction in the number of oocysts (transmission-reducing activity; TRA) were calculated after normalizing to the control untreated sample.

[2] = system: African field isolate SB05; assay: Ex vivo activity on clinical isolate SB05; assay type: cell-based, Plasmodium falciparum; settings: Plasmodium falciparum, read-out: IC50 SB05
From the text: Since SB03/05 are both multiclonal,[27] this warrants further investigation into the activity of this series toward clinical gametocytes.
(A) Dose–response analysis of SQ109 on clinical isolates SB03 and SB05 in comparison to lab-adapted NF54 P. falciparum parasites. Data are from at least 2 independent biological repeats, mean ± SE indicated, * P < 0.05 is indicated. (B) IC50 for SQ109 analogs 13 and 19 against a contemporary African field isolate SB05. […] TEXT PRINTED IN THE PICTURE: (A) SQ109/1: IC50 (μM), NF54: 1.58 ± 0.20; IC50 (μM), SB03: 0.63 ± 0.01; IC50 (μM), SB05: 0.90 DOUBTS OF THE COPYIST ABOUT THIS PICTURE: Panel A: the three IC50 values are matched to NF54, SB03 and SB05 only by line style (black dashed, grey solid, grey dashed), not by a printed label beside the numbers.

HepG2 cells [3] = system: HepG2 cells
Experimental: (§1) Furthermore, compounds were evaluated against late (stage IV/V) gametocytes from PfNF54 (PfNF54 LGc), with viability detected with PrestoBlue,[15] and orthogonally evaluated for toxicity against a human hepatocellular carcinoma line, HepG2.[16]
(§2) Human hepatocellular liver carcinoma cells (HepG2) were cultivated in vitro in Dulbecco’s Modified Eagle’s Medium (DMEM) supplemented with 10% (v/v) heat inactivated fetal bovine serum and 1% (v/v) penicillin/streptomycin.[14] Cells were detached with trypsin treatment at 80% confluency and were seeded in 96-well plates to adhere for 24 h under 5% CO2, humid (95%) conditions. Cells were subsequently exposed to drug pressure for 24 h and cytotoxicity was then determined using the lactate dehydrogenase (LDH) release assay through the colorimetric detection at 450 nm, as previously outlined.[4],[16]

HepG2 cells [4] = assay: HepG2 cytotoxicity, LDH release assay; settings: Homo sapiens, HepG2, 24 h, read-out: HepG2 EC50
Experimental: as §1, §2

PfNF54 ABS [5] = assay: SYBR Green I proliferation assay, asexual blood stages, drug-sensitive NF54; settings: for IC50: Plasmodium falciparum, NF54, 96 h, read-out: Pf ABS IC50 NF54
Experimental: (§3) P. falciparum asexual parasites were cultured from drug-sensitive NF54 (PfNF54) and multidrug resistant strains PfK1. Parasites were maintained in human erythrocytes (O+, suspended at 5% hematocrit) in RPMI-1640 culture medium (23.81 mM sodium bicarbonate, 0.024 mg/mL gentamycin, 25 mM HEPES pH 7.5, 0.2% D-glucose, 0.2 mM hypoxanthine and Albumax II) under hypoxic conditions (5% CO2, 5% O2 and 90% N2) with moderate shaking (60 rpm) at 37 °C. Cultures were synchronized to >95% in the ring stage with 5% (w/v) D-sorbitol treatment.[28]
(§4) Activity against the asexual stage of P. falciparum was evaluated using the SYBR Green I-based fluorescence assay as previously described.[4],[16] Cellular proliferation was measured on synchronized in vitro PfNF54 ring-stage parasites (1% parasitemia, 2% hematocrit), following drug pressure for 96 h. Chloroquine was used as the positive drug control for complete inhibition of parasite proliferation.

PfK1 = assay: SYBR Green I proliferation assay, asexual blood stages, multidrug-resistant K1; settings: for IC50: Plasmodium falciparum, K1, read-out: Pf ABS IC50 K1; for fold higher IC50 against PfK1: PfK1 vs NF54
Experimental: as §3, §4

physchem = assay type: physicochemical; settings: 37 °C, pH 6.5, aqueous buffer, thermodynamic from solid
Experimental: The stock solutions (10^–2 M) of the assayed compounds were diluted to decreased molarity, from 300 to 0.1 μM, in 384 well transparent plate (Greiner 781801) with 1% DMSO:99% PBS buffer. Then, they were incubated at 37 °C and the light scattering was measured after 2 h in a NEPHELOstar Plus (BMG LABTECH). The results were adjusted to a segmented regression to obtain the maximum concentration in which compounds are soluble.
The solubility of each product was evaluated using an HPLC Agilent 1100 with a DAD detector. The samples were injected in an Agilent Poroshell 120 EC-C18, 2.7 μm, 50 mm × 4.6 mm column at 40 °C and 0.6 mL/min flow. The mobile phase was a mixture of A = water with 0.05% formic acid and B = acetonitrile with 0.05% formic acid. The procedure followed was from 95% A–5% B to 100% B in 3 min, 100% B in 3 min, from 100% B to 95% A–5% B in 1 min, 95% A–5% B in 3 min; the injection volume was set at 75 μL. […] The samples remained at these conditions between 12–24 h. Then, the samples were filtered through a 0.45 μm PVDF filter and either directly analyzed or diluted before analyzing. The obtained area under the curve was compared with the one from the standard solution.

in vitro = in vitro ADME; settings: microsomes
Experimental: The microsomal stability assay used a single-point assay design (Di et al., 2004). Briefly, the compounds were incubated at 1 μM in human, rat, and mouse liver microsomes (0.4 mg/mL) for 30 min at 37 °C. Reactions were quenched by adding ice-cold acetonitrile containing internal standard (carbamazepine, 0.0236 μg/mL). The samples were then centrifuged, and the samples were analyzed by liquid chromatography with tandem mass spectrometry (LC-MS/MS) (Agilent Rapid Resolution HPLC, AB SCIEX 4500 MS) for the disappearance of the parent compound. Half-life, clearance and hepatic […] ratios were determined using standard equations.

PfNF54 ABS [6] = system: PfNF54 ABS; parameters: method as in Stampolaki et al.[5]; settings: drug-sensitive NF54; ref Stampolaki et al.[5]; read-out: Pf ABS IC50 NF54; cited from earlier work
HepG2 cells [7] = system: HepG2 cells; parameters: method as in Stampolaki et al.[5]; settings: compound at 20 μM; ref Stampolaki et al.[5]; cited from earlier work
PfDd2 parasites = assay: Asexual blood stage activity, chloroquine-resistant Dd2; assay type: cell-based; settings: Plasmodium falciparum, DD2, read-out: Pf ABS IC50 (Dd2)
From the text: This strain is highly resistant to chloroquine and other antimalarials and is associated with increased export of e.g., chloroquine from the digestive vacuole.[23] This phenotype was also replicated in PfDd2 parasites, also resistant to chloroquine (among other antimalarials), with 4 and 5 losing activity but 1 similarly active (Table 1). These aromatic compounds may therefore be subject to resistance mechanisms similar to those found with chloroquine.

[8] = HepG2 cytotoxicity, LDH release assay; settings: human, HepG2 cells
Experimental: as §1, §2

[9] = read-out: oocyst formation (% inhibition) TBA
[10] = read-out: oocyst formation (% inhibition) TRA

## CC(C)CCCC(C)CCNCCNC1C2CC3CC(C2)CC1C3 (stereo not shown) [Compound 19]
[1]
  IC50: 300 ± 30 nM
Male gametes (PfNF54)
  inhibition at 2 µM: 95.5 ± 4.55%
Female gametes
  female gamete inhibition %: 86.30 ± 2.58%
Oocyst formation; [9]
  inhibition at 2 µM: 36%
Oocyst formation; [10]
  inhibition at 2 µM: 47%
[2]
  IC50: 950 ± 310 nM
HepG2 cells [3]
  cytotoxicity to HepG2 cells (in words): moderately cytotoxic
HepG2 cells [4]
  EC50: 3500 ± 90 nM
PfNF54 ABS [5]
  IC50: 200 nM
PfK1
  IC50: 110 ± 10 nM

## CC(C)=CCC/C(C)=C/CNCCNC(C)(C)C1C2CC3CC(C2)CC1C3 (stereo not shown) [Compound 8]
[1]
  IC50: 290 ± 10 nM
physchem
  solubility: 2340 µM (≈ 872 µg/mL)
In vitro; human
  microsomal CLint at 1 µM: 426 µL/min/mg
In vitro; mouse
  microsomal CLint at 1 µM: 218 µL/min/mg
In vitro; rat
  microsomal CLint at 1 µM: 467 µL/min/mg
Male gametes (PfNF54)
  inhibition at 2 µM: 23.5 ± 9.72%
Female gametes
  female gamete inhibition %: 54.00 ± 2.54%
PfNF54 ABS [6]
  IC50: 770 ± 100 nM
HepG2 cells [7]
  HepG2 % viability: 100%^c
PfK1
  IC50: 1610 ± 550 nM

## CC(C)=CCC/C(C)=C/CNCCNC1(Cc2ccccc2)C2CC3CC(C2)CC1C3 (stereo not shown) [Compound 4]
PfDd2 parasites
  IC50: 8110 nM
[1]
  IC50: 160 ± 20 nM
physchem
  solubility: 13.9 µM (≈ 5.85 µg/mL)
Male gametes (PfNF54)
  inhibition at 2 µM: 43.9 ± 10.6%
Female gametes
  female gamete inhibition %: 74.48 ± 2.26%
Oocyst formation; [9]
  inhibition at 2 µM: 26%
PfNF54 ABS [6]
  IC50: 320 ± 30 nM
HepG2 cells [7]
  HepG2 % viability: 100%^c
PfK1
  fold higher IC50 against PfK1: 16 ×
  IC50: > 5000 nM

## CC(C)=CCC/C(C)=C/CNCCCNC1C2CC3CC(C2)CC1C3 (stereo not shown) [Compound 13]
[1]; PfNF54 LGc
  fold improvement in gametocyte activity compared to 1: 1.2 fold
[1]
  IC50: 120 ± 30 nM
Male gametes (PfNF54)
  inhibition at 2 µM: 90.9 ± 9.09%
Female gametes
  female gamete inhibition %: 87.02 ± 3.68%
Oocyst formation; [9]
  inhibition at 2 µM: 64%
Oocyst formation; [10]
  inhibition at 2 µM: 70%
[2]
  IC50: 490 ± 90 nM
HepG2 cells [4]
  EC50: 11800 ± 830 nM
PfNF54 ABS [5]; PfNF54 ABS
  fold improvement in ABS activity compared to 1: 1.6 fold
PfNF54 ABS [5]
  IC50: 980 ± 80 nM
PfK1
  IC50: 1050 ± 90 nM

## CC(C)CCCC(C)CCCC(C)CCNCCNC1C2CC3CC(C2)CC1C3 (stereo not shown) [Compound 20]
[1]
  IC50: 540 ± 40 nM
Male gametes (PfNF54)
  inhibition at 2 µM: 95 ± 5%
Female gametes
  female gamete inhibition %: 77.52 ± 10.85%
Oocyst formation; [9]
  inhibition at 2 µM: 54%
Oocyst formation; [10]
  inhibition at 2 µM: 75%
HepG2 cells [3]
  cytotoxicity to HepG2 cells (in words): moderately cytotoxic
HepG2 cells [4]
  EC50: 5110 ± 850 nM
PfNF54 ABS [5]
  IC50: 390 ± 150 nM
PfK1
  IC50: 390 ± 10 nM

## CC(C)=CCC/C(C)=C/CNCCNC1(c2ccccc2)C2CC3CC(C2)CC1C3 (stereo not shown) [Compound 5]
PfDd2 parasites
  IC50: 5660 nM
[1]
  IC50: 210 ± 20 nM
physchem
  solubility: 30 µM (≈ 12.2 µg/mL)
In vitro; human
  microsomal CLint at 1 µM: 400 µL/min/mg
In vitro; mouse
  microsomal CLint at 1 µM: 343 µL/min/mg
In vitro; rat
  microsomal CLint at 1 µM: 514 µL/min/mg
Male gametes (PfNF54)
  inhibition at 2 µM: 48 ± 24.8%
Female gametes
  female gamete inhibition %: 61.03 ± 14.35%
Oocyst formation; [9]
  inhibition at 2 µM: 63%
Oocyst formation; [10]
  inhibition at 2 µM: 38%
PfNF54 ABS [6]
  IC50: 420 ± 90 nM
HepG2 cells [7]
  HepG2 % viability: 100%^c
PfK1
  fold higher IC50 against PfK1: 14 ×
  IC50: 5990 ± 630 nM

## c1ccc(Oc2cccc(CNCCNC3C4CC5CC(C4)CC3C5)c2)cc1 (stereo not shown) [Compound 23]
[1]
  IC50: 1510 ± 420 nM
HepG2 cells [3]
  cytotoxicity to HepG2 cells (in words): moderately cytotoxic
HepG2 cells [4]
  EC50: 20000 ± 5690 nM
PfNF54 ABS [5]
  IC50: 960 ± 10 nM
PfK1
  IC50: 4140 ± 1370 nM

## c1ccc(CCNCCNC2C3CC4CC(C3)CC2C4)cc1 (stereo not shown) [Compound 22]
[1]; LGc, compared to 1
  fold loss in gametocyte activity: 7 fold
[1]
  IC50: 740 ± 150 nM
Male gametes (PfNF54)
  inhibition at 2 µM: 92.1 ± 1.21%
Female gametes
  female gamete inhibition %: 85.40 ± 7.62%
Oocyst formation; [9]
  inhibition at 2 µM: 80%
Oocyst formation; [10]
  inhibition at 2 µM: 89%
HepG2 cells [3]
  cytotoxicity to HepG2 cells (in words): moderately cytotoxic
[8]
  viability at 24 h, 20 µM: 100%
PfNF54 ABS [5]
  IC50: 730 ± 40 nM
PfK1
  IC50: 1700 ± 210 nM
